Measurements published in PubChem BioAssay (NCI).
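Protocol summary: plate cells (96-well), add compound at 5 concentrations, incubate 48 h, interpolate endpoints linearly. At the GI50, growth is halved. TGI is the concentration that stops growth completely.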

Columns and labels:
Assay in all cases: inhibition of tumour cell growth, NCI panel, 48 h
SK-MEL-5 melanoma = system: SK-MEL-5 melanoma
SF-268 CNS = system: SF-268 CNS
786-0 renal = system: 786-0 renal
CAKI-1 renal = system: CAKI-1 renal
HT29 colon = system: HT29 colon
NCI-H522 lung = system: NCI-H522 lung
RXF 393 renal = system: RXF 393 renal
M14 melanoma = system: M14 melanoma
MOLT-4 leukemia = system: MOLT-4 leukemia
DU-145 prostate = system: DU-145 prostate
OVCAR-5 ovarian = system: OVCAR-5 ovarian
HCC-2998 colon = system: HCC-2998 colon
HOP-62 NSCLC = system: HOP-62 NSCLC
PC-3 prostate = system: PC-3 prostate
ACHN renal = system: ACHN renal
NCI-H23 lung = system: NCI-H23 lung
UACC-62 melanoma = system: UACC-62 melanoma
NCI-H226 lung = system: NCI-H226 lung
KM12 colon = system: KM12 colon
SK-MEL-28 melanoma = system: SK-MEL-28 melanoma
SF-539 CNS = system: SF-539 CNS
NCI/ADR-RES ovarian = system: NCI/ADR-RES ovarian
IGROV1 ovarian = system: IGROV1 ovarian
RPMI-8226 leukemia = system: RPMI-8226 leukemia
LOX IMVI melanoma = system: LOX IMVI melanoma
EKVX NSCLC = system: EKVX NSCLC
SK-MEL-2 melanoma = system: SK-MEL-2 melanoma
SW-620 colon = system: SW-620 colon
K-562 leukemia = system: K-562 leukemia
BT-549 breast = system: BT-549 breast
NCI-H460 lung = system: NCI-H460 lung
U251 CNS = system: U251 CNS
MDA-MB-231 breast = system: MDA-MB-231 breast
SR leukemia = system: SR leukemia
HL-60(TB) leukemia = system: HL-60(TB) leukemia
SK-OV-3 ovarian = system: SK-OV-3 ovarian
A498 renal = system: A498 renal
SNB-75 CNS = system: SNB-75 CNS
OVCAR-8 ovarian = system: OVCAR-8 ovarian
UACC-257 melanoma = system: UACC-257 melanoma
HOP-92 NSCLC = system: HOP-92 NSCLC
CCRF-CEM leukemia = system: CCRF-CEM leukemia
SF-295 CNS = system: SF-295 CNS
HCT-116 colon = system: HCT-116 colon
OVCAR-3 ovarian = system: OVCAR-3 ovarian
A549 NSCLC = system: A549 NSCLC
COLO 205 colon = system: COLO 205 colon
OVCAR-4 ovarian = system: OVCAR-4 ovarian
HS 578T breast = system: HS 578T breast
MALME-3M melanoma = system: MALME-3M melanoma
MDA-MB-435 = system: MDA-MB-435
SN12C renal = system: SN12C renal
SNB-19 CNS = system: SNB-19 CNS
MCF7 breast = system: MCF7 breast
UO-31 renal = system: UO-31 renal
TK-10 renal = system: TK-10 renal
HCT-15 colon = system: HCT-15 colon
T-47D breast = system: T-47D breast

Structure (SMILES): CC1=C(c2cccc(O)c2)[C@H](c2ccc(OCCN3CC(CF)C3)cc2)Oc2ccc(O)cc21
- GI50 (SK-MEL-5 melanoma): 3.58 µM
- TGI (SK-MEL-5 melanoma): 12.8 µM
- GI50 (SF-268 CNS): 6.28 µM
- TGI (SF-268 CNS): 21.6 µM
- GI50 (786-0 renal): 5.15 µM
- TGI (786-0 renal): 18.9 µM
- GI50 (CAKI-1 renal): 3.13 µM
- TGI (CAKI-1 renal): 12.9 µM
- GI50 (HT29 colon): 3.52 µM
- TGI (HT29 colon): 12.8 µM
- GI50 (NCI-H522 lung): 16 µM
- TGI (NCI-H522 lung): 32.8 µM
- GI50 (RXF 393 renal): 3.46 µM
- TGI (RXF 393 renal): 12.1 µM
- GI50 (M14 melanoma): 2.93 µM
- TGI (M14 melanoma): 9.45 µM
- GI50 (MOLT-4 leukemia): 3.59 µM
- TGI (MOLT-4 leukemia): 16 µM
- GI50 (DU-145 prostate): 4.18 µM
- TGI (DU-145 prostate): 15 µM
- GI50 (OVCAR-5 ovarian): 12.4 µM
- TGI (OVCAR-5 ovarian): 25 µM
- GI50 (HCC-2998 colon): 3.84 µM
- TGI (HCC-2998 colon): 15.4 µM
- GI50 (HOP-62 NSCLC): 11 µM
- TGI (HOP-62 NSCLC): 27.5 µM
- GI50 (PC-3 prostate): 5.8 µM
- TGI (PC-3 prostate): 20.9 µM
- GI50 (ACHN renal): 6.2 µM
- TGI (ACHN renal): 18.6 µM
- GI50 (NCI-H23 lung): 11.2 µM
- TGI (NCI-H23 lung): 25.1 µM
- GI50 (UACC-62 melanoma): 10.4 µM
- TGI (UACC-62 melanoma): 22.6 µM
- GI50 (NCI-H226 lung): 10.7 µM
- TGI (NCI-H226 lung): 28.2 µM
- GI50 (KM12 colon): 6.44 µM
- TGI (KM12 colon): 21.7 µM
- GI50 (SK-MEL-28 melanoma): 5.3 µM
- TGI (SK-MEL-28 melanoma): 18 µM
- GI50 (SF-539 CNS): 5.78 µM
- TGI (SF-539 CNS): 18.3 µM
- GI50 (NCI/ADR-RES ovarian): 15 µM
- TGI (NCI/ADR-RES ovarian): 31 µM
- GI50 (IGROV1 ovarian): 4.42 µM
- TGI (IGROV1 ovarian): 16.6 µM
- GI50 (RPMI-8226 leukemia): 8.11 µM
- TGI (RPMI-8226 leukemia): 27.1 µM
- GI50 (LOX IMVI melanoma): 2.23 µM
- TGI (LOX IMVI melanoma): 5.16 µM
- GI50 (EKVX NSCLC): 9.61 µM
- TGI (EKVX NSCLC): 21.7 µM
- GI50 (SK-MEL-2 melanoma): 7.2 µM
- TGI (SK-MEL-2 melanoma): 20.9 µM
- GI50 (SW-620 colon): 7.28 µM
- TGI (SW-620 colon): 20.9 µM
- GI50 (K-562 leukemia): 3.33 µM
- TGI (K-562 leukemia): 17.9 µM
- GI50 (BT-549 breast): 10.5 µM
- TGI (BT-549 breast): 23.2 µM
- GI50 (NCI-H460 lung): 4.94 µM
- TGI (NCI-H460 lung): 18.2 µM
- GI50 (U251 CNS): 4.19 µM
- TGI (U251 CNS): 18.1 µM
- GI50 (MDA-MB-231 breast): 4.87 µM
- TGI (MDA-MB-231 breast): 17.4 µM
- GI50 (SR leukemia): 3.76 µM
- TGI (SR leukemia): 36.2 µM
- GI50 (HL-60(TB) leukemia): 4.39 µM
- TGI (HL-60(TB) leukemia): 22.2 µM
- GI50 (SK-OV-3 ovarian): 6.26 µM
- TGI (SK-OV-3 ovarian): 20.6 µM
- GI50 (A498 renal): 1.68 µM
- TGI (A498 renal): 9.66 µM
- GI50 (SNB-75 CNS): 10.5 µM
- TGI (SNB-75 CNS): 22.3 µM
- GI50 (OVCAR-8 ovarian): 12.9 µM
- TGI (OVCAR-8 ovarian): 32.6 µM
- GI50 (UACC-257 melanoma): 4.98 µM
- TGI (UACC-257 melanoma): 18.2 µM
- GI50 (HOP-92 NSCLC): 2.52 µM
- TGI (HOP-92 NSCLC): 13.8 µM
- GI50 (CCRF-CEM leukemia): 4.72 µM
- TGI (CCRF-CEM leukemia): 21.2 µM
- GI50 (SF-295 CNS): 4.27 µM
- TGI (SF-295 CNS): 16.5 µM
- GI50 (HCT-116 colon): 4.46 µM
- TGI (HCT-116 colon): 17.5 µM
- GI50 (OVCAR-3 ovarian): 10.8 µM
- TGI (OVCAR-3 ovarian): 24.4 µM
- GI50 (A549 NSCLC): 7.81 µM
- TGI (A549 NSCLC): 23.8 µM
- GI50 (COLO 205 colon): 6.34 µM
- TGI (COLO 205 colon): 23.1 µM
- GI50 (OVCAR-4 ovarian): 9.62 µM
- TGI (OVCAR-4 ovarian): 21.7 µM
- GI50 (HS 578T breast): 5.12 µM
- TGI (HS 578T breast): 26.4 µM
- GI50 (MALME-3M melanoma): 3.23 µM
- TGI (MALME-3M melanoma): 13.3 µM
- GI50 (MDA-MB-435): 12 µM
- TGI (MDA-MB-435): 24.3 µM
- GI50 (SN12C renal): 7.42 µM
- TGI (SN12C renal): 21.3 µM
- GI50 (SNB-19 CNS): 10.1 µM
- TGI (SNB-19 CNS): 22.1 µM
- GI50 (MCF7 breast): 0.0194 µM
- TGI (MCF7 breast): 13.4 µM
- GI50 (UO-31 renal): 3.56 µM
- TGI (UO-31 renal): 16 µM
- GI50 (TK-10 renal): 12 µM
- TGI (TK-10 renal): 25.1 µM
- GI50 (HCT-15 colon): 6.09 µM
- TGI (HCT-15 colon): 19.6 µM
- GI50 (T-47D breast): 0.0747 µM
- TGI (T-47D breast): 19.9 µM
